Here are results for 28 molecules from ChEMBL document CHEMBL5352464, “Structure based design and evaluation of benzoheterocycle derivatives as potential dual HIV-1 protease and reverse transcriptase inhibitors” (Eur J Med Chem, 2023).

Assay [1] deals with Human immunodeficiency virus type 1 reverse transcriptase (Human immunodeficiency virus 1) (UniProt Q72547). Put plainly: Inhibition of HIV-1 NL4-3 reverse transcriptase at 100 uM by RT-PCR analysis relative to control.
The target in assay [2] is Human immunodeficiency virus type 1 protease (Human immunodeficiency virus 1, UniProt Q72874). The assay can be described thus: Inhibition of HIV-1 protease expressed in Escherichia coli using Arg-Glu-(EDANS)-Ser-Gln-Asn-Tyr-Pro-Ile-Val-Gln-Lys-([…])-Arg as substrate preincubated with compound for 20 to 30 mins followed by substrate addition and measured after 10 mins by FRET analysis.

For assay [3], the target named is Human immunodeficiency virus type 1 reverse transcriptase (Human immunodeficiency virus 1, UniProt Q72547). The assay can be described thus: Inhibition of HIV-1 NL4-3 reverse transcriptase by RT-PCR analysis.
In assay [4] the test system is Human immunodeficiency virus 1. Put plainly: Antiviral activity against VSV-G pseudotyped HIV1 NL4-3 infected in HEK293T cells assessed as inhibition of late stage viral replication pre-infected with cells for 5 hrs followed by compound treatment for 48 hrs and further infected with human SupT1 cells for 48 hrs by luciferase based analysis. Type of assay: functional, organism-based. Conditions: Human immunodeficiency virus 1, NL4-3, HEK-293T.

Assay [5] relates to Human immunodeficiency virus 1. The assay can be described thus: Antiviral activity against wild-type HIV1 NL4-3 infected in human SUP-T1 cells assessed as inhibition of viral replication pre-infected with compound for 1 day followed by compound washout and replaced with fresh medium for 48 hrs and further infected with human TZM-bl cells by lucifrease based analysis. The class given is functional, organism-based. Conditions: Human immunodeficiency virus 1, NL4-3, SUP-T1.

In assay [6] the test system is Human immunodeficiency virus 1. Put plainly: microbe, parasite or virus in culture. Conditions: Human immunodeficiency virus 1, NL4-3, SUP-T1, 48 h.
Description: Antiviral activity against VSV-G pseudotyped HIV1 NL4-3 infected in human SUP-T1 cells assessed as inhibition of early stage viral replication incubated for 48 hrs by luciferase based analysis
The nature of assay [7]: Selectivity ratio of EC50 for antiviral activity against VSV-G pseudotyped HIV1 NL4-3 infected in human SUP-T1 cells assessed as inhibition of early stage viral replication to EC50 for antiviral activity against VSV-G pseudotyped HIV1 NL4-3 infected in HEK293T cells assessed as inhibition of late stage viral replication. Type of assay: functional, Human immunodeficiency virus 1.

Assay [8] in a line: Selectivity ratio of EC50 for antiviral activity against DRV-resistant HIV1 mutant to EC50 for antiviral activity against wild-type HIV1 NL4-3 infected in human SUP-T1 cells assessed as inhibition of viral replication. Type of assay: functional, Human immunodeficiency virus 1.
Assay [9] relates to Human immunodeficiency virus 1. The assay can be described thus: microbe, parasite or virus in culture.

Some results are limits rather than exact numbers.

The inhibition is the percentage by which the read-out fell short of the control. Read a low inhibition as little suppression. The term IC50 denotes the concentration needed to halve the response being measured. In the case of `CC(C)CN(C[C@@H](O)[C@H](Cc1ccccc1)NC(=O)c1cc2ccc(O)cc2o1)S(=O)(=O)c1ccc(N)cc1`, in [1], the inhibition is less than 20%. The IC50 in [2] came out at 3.05 µM.

Turning to `COc1ccc(S(=O)(=O)N(CC(C)C)C[C@@H](O)[C@H](Cc2ccccc2)NC(=O)c2cc3ccc(O)cc3o2)cc1`, the inhibition in assay [1] is less than 20%. For the same molecule, the IC50 in assay [2] was 2 µM.

On to `COc1ccc(S(=O)(=O)N(CC(C)C)C[C@@H](O)[C@H](Cc2ccccc2)NC(=O)c2coc3ccccc23)cc1`, for which the inhibition in assay [1] was less than 20%. Moreover, in assay [2], the IC50 is 8.96 µM.

`COc1ccc(S(=O)(=O)N(CC(C)C)C[C@@H](O)[C@H](Cc2ccccc2)NC(=O)c2cc3cc(O)ccc3o2)cc1` showed an inhibition in [1] of less than 20%. For the same molecule, the IC50 in assay [2] came out at 2.38 µM.

As for `COc1ccc(S(=O)(=O)N(CC(C)C)C[C@@H](O)[C@H](Cc2ccccc2)NC(=O)c2cc3cc(O)ccc3o2)cn1`, the IC50 in assay [2] is 1.98 µM; in assay [3] it was 118 µM.

Turning to `COc1ccc(S(=O)(=O)N(CC(C)C)C[C@@H](O)[C@H](Cc2ccccc2)NC(=O)c2cc3ccc(N)cc3o2)cc1`, the inhibition in [1] is less than 20%. Further, the IC50 in assay [2] worked out at 3.73 µM.

For the molecule `COc1ccc(S(=O)(=O)N(CC(C)C)C[C@@H](O)[C@H](Cc2ccccc2)NC(=O)c2c[nH]c3ccccc23)cc1`, the inhibition in assay [1] was less than 20%. Moreover, the IC50 in assay [2] came out at 12.9 µM.

As usually defined, the EC50 is the concentration giving half of the maximal effect. Turning to `CC(C)CN(C[C@@H](O)[C@H](Cc1ccccc1)NC(=O)O[C@H]1CO[C@H]2OCC[C@H]21)S(=O)(=O)c1ccc(N)cc1`, the EC50 in [4] and in [5] was 0.002 µM each time.

In the case of `CC(C)CN(C[C@@H](O)[C@H](Cc1ccccc1)NC(=O)c1cc2cc(O)ccc2[nH]1)S(=O)(=O)c1ccc(N)cc1`, the half-maximal inhibitory concentration (IC50) in assay [2] worked out at 0.86 µM; in assay [3] it was 102 µM.

With `COc1ccc(S(=O)(=O)N(CC(C)C)C[C@@H](O)[C@H](Cc2ccccc2)NC(=O)c2cc3cc(O)c(O)cc3o2)cc1`, the EC50 in [4] is 4.4 µM; in assay [6], 9.33 µM; in [9] it was 16.6 µM; in assay [5], 4.4 µM. Moreover, the “Ratio EC50” value in assay [7] is recorded as 2.12; in assay [8] it was 3.8. Also, the IC50 came to 1.93 µM in assay [2] and 2.35 µM in [3].

With `COc1ccc(S(=O)(=O)N(CC(C)C)C[C@@H](O)[C@H](Cc2ccccc2)NC(=O)c2cc3ccccc3[nH]2)cc1`, the inhibition in assay [1] was less than 20%. Moreover, the IC50 in assay [2] amounted to 7.51 µM.

Regarding `COc1ccc(S(=O)(=O)N(CC(C)C)C[C@@H](O)[C@H](Cc2ccccc2)NC(=O)c2cc3cc(O)ccc3[nH]2)cc1`, the inhibition in assay [1] is less than 20%. In addition, the IC50 in [2] worked out at 0.58 µM.

Molecule `COc1ccc(S(=O)(=O)N(CC(C)C)C[C@@H](O)[C@H](Cc2ccccc2)NC(=O)c2cc3cc(N)ccc3o2)cc1` had an inhibition in assay [1] of less than 20%. Moreover, the IC50 in assay [2] was determined as 5.3 µM.

`COc1ccc(S(=O)(=O)N(CC(C)C)C[C@@H](O)[C@H](Cc2ccccc2)NC(=O)c2cc3cc(O)ccc3[nH]2)cn1` came in with an inhibition in assay [1] of less than 20%. Moreover, the IC50 in [2] is 0.74 µM.

In the case of `COc1ccc(S(=O)(=O)N(CC(C)C)C[C@@H](O)[C@H](Cc2ccccc2)NC(=O)c2cc3cc(O)c(O)cc3[nH]2)cc1`, the IC50 in [2] is 1.07 µM; in [3], 96.5 µM.

For the molecule `CC(C)CN(C[C@@H](O)[C@H](Cc1ccccc1)NC(=O)c1cc2ccccc2o1)S(=O)(=O)c1ccc(N)cc1`, in [1], the inhibition is less than 20%. In addition, the IC50 in assay [2] is 16.3 µM.

In the case of `COc1ccc(S(=O)(=O)N(CC(C)C)C[C@@H](O)[C@H](Cc2ccccc2)NC(=O)c2coc3cc(O)c(O)cc23)cn1`, the EC50 amounted to 1.76 µM in [4], 22.7 µM in assay [6], 2.83 µM in [9] and 1.76 µM in assay [5]. Besides, the “Ratio EC50” value is given as 12.88 in assay [7] and 1.6 in assay [8]. In addition, the values for the IC50 in [2] and in assay [3] were 1.36 µM and 7.5 µM, respectively.

As to `O=C1Nc2ccc(Cl)cc2[C@@](C#CC2CC2)(C(F)(F)F)O1` [EFAVIRENZ], the EC50 in assay [4] is greater than 100 µM.

For `COc1ccc(S(=O)(=O)N(CC(C)C)C[C@@H](O)[C@H](Cc2ccccc2)NC(=O)c2coc3cc(O)ccc23)cc1`, the IC50 in assay [2] amounted to 1.56 µM; in assay [3] it was 60.3 µM.

For `COc1ccc(S(=O)(=O)N(CC(C)C)C[C@@H](O)[C@H](Cc2ccccc2)NC(=O)c2cc3ccc(O)cc3o2)cn1`, the IC50 in [2] turned out to be 2.84 µM; in [3] it was 223 µM.

`CC(C)CN(C[C@@H](O)[C@H](Cc1ccccc1)NC(=O)c1cc2cc(O)ccc2o1)S(=O)(=O)c1ccc(N)cc1`: the inhibition in [1] was less than 20%. For the same molecule, the IC50 in assay [2] is 4.53 µM.

In the case of `COc1ccc(S(=O)(=O)N(CC(C)C)C[C@@H](O)[C@H](Cc2ccccc2)NC(=O)c2cc3ccccc3o2)cc1`, the IC50 in assay [2] stood at 9.21 µM; in [3] it was 65.5 µM.

Regarding `CC(C)CN(C[C@@H](O)[C@H](Cc1ccccc1)NC(=O)c1cc2ccc(O)cc2[nH]1)S(=O)(=O)c1ccc(N)cc1`, the IC50 in [2] was 0.55 µM; in assay [3], 178 µM.

Take `COc1ccc(S(=O)(=O)N(CC(C)C)C[C@@H](O)[C@H](Cc2ccccc2)NC(=O)c2coc3ccc(O)cc23)cc1`: the IC50 in assay [2] is 2.05 µM; in assay [3], 82.7 µM.

For `COc1ccc(S(=O)(=O)N(CC(C)C)C[C@@H](O)[C@H](Cc2ccccc2)NC(=O)c2cc3ccc(O)cc3[nH]2)cc1`, the IC50 was determined as 0.5 µM in [2] and 164 µM in [3].

Turning to `COc1ccc(S(=O)(=O)N(CC(C)C)C[C@@H](O)[C@H](Cc2ccccc2)NC(=O)c2cc3cc(O)c(O)cc3o2)cn1`, the EC50 in assay [4] was determined as 4.2 µM; in [6], 14.5 µM; in assay [9], 17 µM; in assay [5] it was 4.2 µM. Further, the “Ratio EC50” value amounted to 3.45 in [7] and 4.1 in assay [8]. The IC50 worked out at 2.31 µM in [2] and 5.82 µM in assay [3].

With `COc1ccc(S(=O)(=O)N(CC(C)C)C[C@@H](O)[C@H](Cc2ccccc2)NC(=O)c2cc3cc(O)c(O)cc3[nH]2)cn1`, the EC50 in [4] stood at 0.17 µM; in [6] it was 10.5 µM; in [9] it was 2.19 µM; in assay [5], 0.17 µM. Further, the “Ratio EC50” value amounted to 61.59 in [7] and 12.9 in assay [8]. Besides, the figures for the IC50 in assay [2] and in assay [3] were 0.84 µM and 1.52 µM, respectively.

In assay [1], `COc1ccc(S(=O)(=O)N(CC(C)C)C[C@@H](O)[C@H](Cc2ccccc2)NC(=O)c2cc3ccc(O)cc3[nH]2)cn1` showed an inhibition of less than 20%. In assay [2], the IC50 stood at 0.46 µM.
